Test [1] deals with HT-29 colorectal cancer cell line. As to the kind of experiment: MTT cell viability assay. It counts as cell-based, human. Particulars: for inhibition of HT-29 cancer cells viability: 10 µM, 24 h, MTT. The protocol:
(§1) In the present investigation a new set of benzofuran–isatin hybrids (5a–e and 7a–i) was synthesised to be evaluated for their potential anticancer activity towards two human colorectal cancer cell lines, SW-620 and HT-29. […] Both, SW-620 and HT-29 cells were treated with 10 µM of each compound for 24 h and the percent cell viability was calculated using MTT assay.
(§2) For this reason, compounds 5a and 5d were pursued for further studies. Starting with determination of IC50s and cytotoxic selectivity studies. Serial concentrations of compounds 5a and 5d were used to examine their impact on cell viability using MTT protocol. Results of concentration vs percent viability were charted, and the IC50 was calculated for SW-620 and HT-29 cell lines using Graph Pad prism 8 (Figure 4). […]
(§3) [(Ti-Tz)/Tz] x 100 for concentrations for which Ti<Tz […]
(§4) SW620 and HT29 colorectal cancer cell lines and HFF-1 fibroblast (ATCC, Rockville, USA) were used. HT29 cells were cultured and maintained in Dulbecco’s Modified Eagles Medium (DMEM) (GIBCO, by Thermo Fischer Scientific, NY, USA) supplemented with 10% fetal bovine serum (FBS), 100 units/mL penicillin, and 100 μg streptomycin. SW620 and HFF-1 cells were cultured in Roswell Park Memorial Institute medium (RPMI-1640) (GIBCO, by Thermo scientific, NY, USA) supplemented with 10% FBS and 1% penicillin and streptomycin (Napolitano et al., 2015). All cultures were incubated at 37 °C and humidified atmosphere of 5% […]
(§5) 2.3. Cell Viability Assay
(§6) The cytotoxicity effect of compounds on the colorectal cancer cell lines, SW620 and HT29 in addition to the normal human fibroblasts was measured by MTT (3-(4, 5-dimethylthiazol-2-yl)-2,5-diphenyltetrazolium bromide) (Sigma-Aldrich, St. Louis, MO, USA) as previously described. Briefly, cells were seeded in 96 well culture plates at 5000/well for HT29 and 10,000/well for SW620 for 24 h. Cells were then incubated with different compounds from WAG1 series (1-15) 24h at 37 °C and humidified 5% CO2 incubator. Freshly prepared 10 μl of 3-(4,5-dimethylthiazol-2-yl)-2,5-diphenyltetrazolium bromide (MTT 5 mM) solution were added to the cells and further incubated for 2 h. Thereafter, 100 μl of dimethyl sulfoxide (DMSO) were added in each well and the crystals were dissolved through careful pipetting. […]
VA, USA). The experiments were performed in triplicate for each condition. […]
(§7) The total protein concentration was evaluated by the colorimetric
(§8) Bradford protein assay (BIO-RAD inc, CA, USA) at 595 nm absorbance. Lysates were loaded in […]
For orientation: Tetrazolium assays rely on reduction of a dye to a coloured formazan, in cell work by metabolically active cells.

For test [2], the system named is SW-620 colorectal cancer cell line. Nature of the test: MTT cell viability assay. It counts as cell-based, human. Particulars: Homo sapiens, SW-620, SW-620, MTT. Here is the method: as §1, §2, §3, §4, §5
as §6, with “pipetting. In certain experiment, cells were treated different concentration of 5FU for 72 h. The absorbance of the product was measured at 540 nm using a Synergy™ 2 multi-mode microplate reader (Biotech, VA, USA). The experiments were performed in triplicate for each condition.” for “pipetting.”
as §7, §8

This note sets out measurements from publication PMC8245078, “Development of novel benzofuran-isatin conjugates as potential antiproliferative agents with apoptosis inducing mechanism in Colon cancer” (Journal of Enzyme Inhibition and Medicinal Chemistry, 2021).

Usually IC50 stands for the concentration at which inhibition is half-maximal.

Where only a bound is given, the exact number is not on record here.

As to `Cc1c(C(=O)N/N=C2\C(=O)N(Cc3ccc(F)cc3)c3ccccc32)oc2ccccc12` [Compound 7e], the “inhibition of HT-29 cancer cells viability” value (from here on “inhibition”) in test [1] is recorded as > 50%.

With `Cc1c(C(=O)N/N=C2\C(=O)N(Cc3ccc(F)cc3)c3ccc(Br)cc32)oc2ccccc12` [Compound 7i], the “inhibition” value in test [1] was > 50%.

With `CCc1c2c(nc3ccc(OC(=O)N4CCC(N5CCCCC5)CC4)cc13)-c1cc3c(c(=O)n1C2)COC(=O)[C@]3(O)CC` [Irinotecan, reference compound], the IC50 in test [2] was found to be 1 µM; in test [1] (Homo sapiens, HT-29, HT-29, MTT), 6.18 µM.

On to `Cc1c(C(=O)N/N=C2\C(=O)N(Cc3ccccc3)c3ccc(Br)cc32)oc2ccccc12` [Compound 7h], for which, in test [1], the “inhibition” value was > 50%.

On to `C=CCN1C(=O)/C(=N\NC(=O)c2oc3ccccc3c2C)c2ccccc21` [Compound 7c], for which, in test [1], the “inhibition” value is on record as > 50%.
